# Assay results reported in patent publication US20200222474A1, “COMPOSITIONS AND METHODS FOR INCREASING PHYTOCHEMICAL BIOAVAILABLITY AND BIOACTIVITY” (North Carolina State University, priority 2017, published 2020).
# System: L. acidophilus NCFM
# Assay: RNA-seq transcriptional analysis of L. acidophilus NCFM growing on plant glycosides
# Type: cell-based, Lactobacillus acidophilus
# [1] = LBA0329 Putative cell division protein, COG D
# [2] = LBA0466 Hypothetical protein, COG C
# [3] = LBA0500 MSM operon repressor, COG K
# [4] = LBA0545 Hypothetical protein, COG L
# [5] = LBA0547 Putative site-specific recombinase, COG L
# [6] = LBA0573 Putative transcriptional regulator, COG K
# [7] = LBA0607 Putative transcriptional regulator, COG K
# [8] = LBA0672 Putative phosphate starvation inducible protein stress related, COG J
# [9] = LBA0753 Multi-drug-type permease, COG GEPR
# [10] = LBA0886 Sugar kinase-putative transcriptional regulator, COG KG
# [11] = LBA0887 Hypothetical protein, COG C
# [12] = LBA0897 Putative Cro-like protein, COG K
# [13] = LBA0910 L-lactate dehydrogenase, COG C
# [14] = LBA1021 Putative transcriptional regulator, COG K
# [15] = LBA1220 Pyridine mercuric reductase, COG C
# [16] = LBA1392 Mucus binding protein precursor Mub, COG J
# [17] = LBA1411 Fumarate reductase flavoprotein subunit, COG CS
# [18] = LBA1436 Glycerol uptake facilitator protein, COG G
# [19] = LBA1457 Galactose-1-epimerase, COG G
# [20] = LBA1458 Galactose-1-phosphate uridylyltransferase, COG G
# [21] = LBA1462 Beta-galactosidase, COG G
# [22] = LBA1463 Lactose permease, COG G
# [23] = LBA1465 Transcription repressor of beta-galactosidasegene, COG K
# [24] = LBA1467 Beta-galactosidase large subunit (lactase), COG G
# [25] = LBA1468 Beta-galactosidase small subunit, COG G
structure (smiles),measurement,setting,value
N#C[C@H](O[C@@H]1O[C@H](CO[C@@H]2O[C@H](CO)[C@@H](O)[C@H](O)[C@H]2O)[C@@H](O)[C@H](O)[C@H]1O)c1ccccc1 [Amygdalin],Log2 differential normalized TPM ratio compared to glucose,"LBA0016 Fructokinase, COG KG",2.4
same,Log2 differential normalized TPM ratio compared to lactose,"LBA0016 Fructokinase, COG KG",1.2
same,Transcripts per million (rpm),"LBA0016 Fructokinase, COG KG",387.4 rpm
same,Log2 differential normalized TPM ratio compared to glucose,[1],−0.1
same,Log2 differential normalized TPM ratio compared to lactose,[1],−0.5
same,Transcripts per million (rpm),[1],12.3 rpm
same,Log2 differential normalized TPM ratio compared to glucose,[2],5.2
same,Log2 differential normalized TPM ratio compared to lactose,[2],3.7
same,Transcripts per million (rpm),[2],2769.5 rpm
same,Log2 differential normalized TPM ratio compared to glucose,[3],2
same,Log2 differential normalized TPM ratio compared to lactose,[3],0.4
same,Transcripts per million (rpm),[3],169.5 rpm
same,Log2 differential normalized TPM ratio compared to glucose,[4],2
same,Log2 differential normalized TPM ratio compared to lactose,[4],0
same,Transcripts per million (rpm),[4],244.7 rpm
same,Log2 differential normalized TPM ratio compared to glucose,[5],1.5
same,Log2 differential normalized TPM ratio compared to lactose,[5],−0.3
same,Transcripts per million (rpm),[5],24.9 rpm
same,Log2 differential normalized TPM ratio compared to glucose,[6],−1.5
same,Log2 differential normalized TPM ratio compared to lactose,[6],−1.6
same,Transcripts per million (rpm),[6],26.5 rpm
same,Log2 differential normalized TPM ratio compared to glucose,[7],2.7
same,Log2 differential normalized TPM ratio compared to lactose,[7],2.2
same,Transcripts per million (rpm),[7],252.9 rpm
same,Log2 differential normalized TPM ratio compared to glucose,[8],2.7
same,Log2 differential normalized TPM ratio compared to lactose,[8],1.9
same,Transcripts per million (rpm),[8],8689.6 rpm
same,Log2 differential normalized TPM ratio compared to glucose,[9],−0.6
same,Log2 differential normalized TPM ratio compared to lactose,[9],0.1
same,Transcripts per million (rpm),[9],26.1 rpm
same,Log2 differential normalized TPM ratio compared to glucose,[10],2.2
same,Log2 differential normalized TPM ratio compared to lactose,[10],2
same,Transcripts per million (rpm),[10],25.1 rpm
same,Log2 differential normalized TPM ratio compared to glucose,[11],2.4
same,Log2 differential normalized TPM ratio compared to lactose,[11],1.2
same,Transcripts per million (rpm),[11],247 rpm
same,Log2 differential normalized TPM ratio compared to glucose,[12],−2.3
same,Log2 differential normalized TPM ratio compared to lactose,[12],0.2
same,Transcripts per million (rpm),[12],0.4 rpm
same,Log2 differential normalized TPM ratio compared to glucose,[13],3.9
same,Log2 differential normalized TPM ratio compared to lactose,[13],2.9
same,Transcripts per million (rpm),[13],1594.3 rpm
same,Log2 differential normalized TPM ratio compared to glucose,[14],−1.2
same,Log2 differential normalized TPM ratio compared to lactose,[14],−1.5
same,Transcripts per million (rpm),[14],52.4 rpm
same,Log2 differential normalized TPM ratio compared to glucose,[15],1.2
same,Log2 differential normalized TPM ratio compared to lactose,[15],0.2
same,Transcripts per million (rpm),[15],377.5 rpm
same,Log2 differential normalized TPM ratio compared to glucose,[16],0.8
same,Log2 differential normalized TPM ratio compared to lactose,[16],1.1
same,Transcripts per million (rpm),[16],148.6 rpm
same,Log2 differential normalized TPM ratio compared to glucose,[17],4
same,Log2 differential normalized TPM ratio compared to lactose,[17],2.9
same,Transcripts per million (rpm),[17],28.7 rpm
same,Log2 differential normalized TPM ratio compared to glucose,[18],7.2
same,Log2 differential normalized TPM ratio compared to lactose,[18],3.5
same,Transcripts per million (rpm),[18],328.8 rpm
same,Log2 differential normalized TPM ratio compared to glucose,[19],2.6
same,Log2 differential normalized TPM ratio compared to lactose,[19],−3
same,Transcripts per million (rpm),[19],74.9 rpm
same,Log2 differential normalized TPM ratio compared to glucose,[20],2.8
same,Log2 differential normalized TPM ratio compared to lactose,[20],−2.9
same,Transcripts per million (rpm),[20],74 rpm
same,Log2 differential normalized TPM ratio compared to glucose,"LBA1459 Galactokinase, COG G",1.8
same,Log2 differential normalized TPM ratio compared to lactose,"LBA1459 Galactokinase, COG G",−2.8
same,Transcripts per million (rpm),"LBA1459 Galactokinase, COG G",70.3 rpm
same,Log2 differential normalized TPM ratio compared to glucose,[21],−0.5
same,Log2 differential normalized TPM ratio compared to lactose,[21],−6.5
same,Transcripts per million (rpm),[21],10.2 rpm
same,Log2 differential normalized TPM ratio compared to glucose,[22],0.2
same,Log2 differential normalized TPM ratio compared to lactose,[22],−4.5
same,Transcripts per million (rpm),[22],50.7 rpm
same,Log2 differential normalized TPM ratio compared to glucose,"LBA1464 Transposase, COG L",−0.1
same,Log2 differential normalized TPM ratio compared to lactose,"LBA1464 Transposase, COG L",−2.5
same,Transcripts per million (rpm),"LBA1464 Transposase, COG L",133.1 rpm
same,Log2 differential normalized TPM ratio compared to glucose,[23],−0.1
same,Log2 differential normalized TPM ratio compared to lactose,[23],−3.2
same,Transcripts per million (rpm),[23],43.7 rpm
same,Log2 differential normalized TPM ratio compared to glucose,[24],3.3
same,Log2 differential normalized TPM ratio compared to lactose,[24],−5.5
same,Transcripts per million (rpm),[24],42.2 rpm
same,Log2 differential normalized TPM ratio compared to glucose,[25],1.8
same,Log2 differential normalized TPM ratio compared to lactose,[25],−4.6
